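The compound was tested at five concentrations on cells cultured in 96-well plates, with a 48-hour exposure period. The concentration for 50% growth inhibition is given as GI50. Definition used: TGI = concentration required for complete inhibition of growth.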
Columns and labels:
Experiment in all cases: NCI tumour cell line growth inhibition, 48 h
DMS 273 small cell lung = system: DMS 273 small cell lung
OVCAR-3 ovarian = system: OVCAR-3 ovarian
SNB-75 CNS = system: SNB-75 CNS
SR leukemia = system: SR leukemia
TK-10 renal = system: TK-10 renal
OVCAR-8 ovarian = system: OVCAR-8 ovarian
UACC-257 melanoma = system: UACC-257 melanoma
HCT-116 colon = system: HCT-116 colon
T-47D breast = system: T-47D breast
DU-145 prostate = system: DU-145 prostate
SNB-78 CNS = system: SNB-78 CNS

Row | SMILES | TGI (DMS 273 small cell lung) | TGI (OVCAR-3 ovarian) | TGI (SNB-75 CNS) | TGI (SR leukemia) | TGI (TK-10 renal) | TGI (OVCAR-8 ovarian) | TGI (UACC-257 melanoma) | TGI (HCT-116 colon) | TGI (T-47D breast) | TGI (DU-145 prostate) | GI50 (T-47D breast) | GI50 (TK-10 renal) | TGI (SNB-78 CNS) | GI50 (DU-145 prostate)
1 | Cc1cc(OCC(O)CO)ccc1Cl (configuration not stated) | > 100 µM | > 100 µM | > 100 µM | > 100 µM | > 100 µM | > 100 µM | > 100 µM | > 100 µM | – | – | – | – | – | –
2 | OC(CCl)CN1CC[N+]2(CC1)CC[N+]1(CCN(CC(O)CCl)CC1)CC2 (configuration not stated) | > 50 µM | > 50 µM | > 50 µM | > 50 µM | > 50 µM | > 50 µM | – | > 50 µM | – | – | – | – | – | –
3 | O=C1Nc2ccccc2SC1=C(C(=O)c1ccccc1)C(=O)c1ccccc1 | – | 41.5 µM | > 94.6 µM | > 100 µM | > 100 µM | > 100 µM | > 88 µM | > 100 µM | > 100 µM | > 100 µM | – | – | – | –
4 | CC(C)(C)CC(C)(C)NCC(O)COc1ccc(C(C)(C)c2ccc(OCC(O)CNC(C)(C)CC(C)(C)C)cc2)cc1 (configuration not stated) | 2.28 µM | 2.47 µM | 2.79 µM | – | 3.32 µM | 3.25 µM | – | 5.38 µM | 3.48 µM | 2.75 µM | 1.66 µM | 1.75 µM | 3.63 µM | 1.39 µM
5 | O=C(O)c1cccc(S(=O)(=O)NN2C(=O)CSC2c2c(O)ccc3ccccc23)c1 (configuration not stated) | – | 62.5 µM | > 100 µM | 59.6 µM | > 100 µM | 15.7 µM | > 100 µM | 38.5 µM | 80.5 µM | > 100 µM | – | – | – | –
6 | Fc1ccc2c(c1)nc1n2C(c2c(F)cccc2F)SC1 (configuration not stated) | – | > 100 µM | > 100 µM | 58.5 µM | > 100 µM | > 100 µM | > 100 µM | > 100 µM | > 100 µM | > 100 µM | – | – | – | –
7 | CC1C(c2ccccc2)NC(c2ccccc2)CC1(N)C#N (configuration not stated) | – | > 100 µM | > 100 µM | > 100 µM | > 100 µM | > 100 µM | > 100 µM | > 100 µM | > 100 µM | > 100 µM | – | – | – | –
8 | COc1ccc(C2=NN(c3nsc4ccccc34)C(=O)CC2)cc1 | > 100 µM | > 100 µM | > 100 µM | > 100 µM | > 100 µM | > 100 µM | > 100 µM | > 100 µM | – | – | – | – | > 100 µM | –
9 | COc1ccc(/N=N/C(=NNC(=O)c2ccc(C)cc2)c2ccc(N(C)C)cc2)cc1 | – | > 79.4 µM | > 100 µM | 88.7 µM | > 100 µM | > 100 µM | > 91.4 µM | > 100 µM | > 33.8 µM | > 72.7 µM | – | – | – | –
10 | CC(C)(CO)CNc1cc(Cl)nc(N)n1 | – | > 100 µM | > 100 µM | > 100 µM | > 100 µM | > 100 µM | > 100 µM | > 100 µM | > 100 µM | > 100 µM | – | – | – | –
11 | CC1=NN2CCC(=O)N=C2S1 | – | > 100 µM | > 100 µM | > 100 µM | > 100 µM | > 100 µM | > 100 µM | > 100 µM | > 100 µM | > 100 µM | – | – | – | –
12 | Nc1c(C(=O)O)nnc2cc(Cl)ccc12 | – | > 100 µM | > 100 µM | > 100 µM | > 100 µM | > 100 µM | > 100 µM | > 100 µM | > 100 µM | > 100 µM | – | – | – | –
13 | COc1ccc(/C=C2\OC(=O)C(Cl)=C2c2ccc(OC)c(Cl)c2)cc1 | – | 43.7 µM | 63.4 µM | > 100 µM | 45.6 µM | 60.8 µM | > 100 µM | > 100 µM | > 100 µM | > 100 µM | – | – | – | –

Reference: PubChem BioAssay (NCI)
